Test results from patent publication US20060089395A1, “Nf-kb activation inhibitors” (priority 2002, published 2006).
Where two headings read alike, the source gives them in different places.

Tests used:
Format in all cases: cell-based, human
NF-κ B = assay: Inhibitory activity of NF-κ B activation, luciferase reporter assay in HepG2 under TNF-α stimulation; details: for inhibition at 1 µg/mL / inhibition at 10 µg/mL / inhibition at 0.1 µg/mL: Homo sapiens; for inhibition at 0.1 µg/mL: 0.1 μg/ml, read-out: Inhibitory Ratio of NF-κB Activation (%) 0.1 μg/ml
How it was run: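 HepG2 cells transiently transfected with a luciferase reporter driven by five tandem NF-κB binding sites, then incubated 6–24 h. Stimulated with TNF-α (40 ng/ml) with or without test compound for 4 h. Intracellular luciferase read by chemiluminescence; inhibition expressed relative to activity without compound.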

IL-6 = assay: Inhibition of IL-6 production by TNFα stimulation in synovial fibroblasts derived from a rheumatoid patient (ELISA); details: for IC50: synovial fibroblasts, read-out: Inhibition against Mediator Release IC50(nM) IL-6; for Inhibitory ratios (%) at 1000 nM, IL-6: in parentheses
Description: (§1) Synovial fibroblasts (Human Synoviocyte (RA-Positive), Toyobo, T4040-05) were cultured for 3 days in a medium containing 10 ng/ml of TNFα and a test compound. IL-6 and IL-8 in the supernatant were measured by the ELISA method, and PGE2 (prostaglandin E2) was measured by the EIA method.

IL-8 = assay: Inhibition of IL-8 production by TNFα stimulation in synovial fibroblasts derived from a rheumatoid patient (ELISA); details: Homo sapiens, Fibroblast; for IC50: synovial fibroblasts, read-out: Inhibition against Mediator Release IC50(nM) IL-8; for inhibition at 1 µM: 1000 nM, in parentheses, read-out: Inhibitory ratios (%) at 1000 nM, IL-8
Description: as §1

PGE2 = assay: Inhibition of PGE2 production by TNFα stimulation in synovial fibroblasts derived from a rheumatoid patient (EIA); details: for IC50: synovial fibroblasts, read-out: Inhibition against Mediator Release IC50(nM) PGE2; for Inhibitory ratios (%) at 1000 nM, PGE2: in parentheses
Description: as §1

[1] = 1 μg/mL, HepG2, TNF-α (40 ng/ml), 4 hours
[2] = 10 μg/mL, HepG2, TNF-α (40 ng/ml), 4 hours
[3] = Homo sapiens, Fibroblast, comparison compounds, TNFα stimulation
[4] = comparison compounds, TNFα stimulation
[5] = HepG2, 4 h, comparison table, reporter assay
[6] = HepG2, 4 h, 1 μg/ml, comparison table, reporter assay, read-out: Inhibitory Ratio of NF-κB Activation (%) 1 μg/ml
[7] = HepG2, 4 h, 10 μg/ml, comparison table, reporter assay, read-out: Inhibitory Ratio of NF-κB Activation (%) 10 μg/ml

| SMILES | Inhibitory Ratio of NF-κ B Activation(%) Drug Concentration 1 μg/mL (NF-κ B; [1]) [%] | Inhibitory Ratio of NF-κ B Activation(%) Drug Concentration 10 μg/mL (NF-κ B; [2]) [%] | IC50 (IL-6; [3]) [nM] | inhibition at 1 µM (IL-8; 72 h) [%] | IC50 (IL-8; [4]) [nM] | IC50 (PGE2; [3]) [nM] | also measured |
| --- | --- | --- | --- | --- | --- | --- | --- |
| O=C(Nc1cc(C(F)(F)F)cc(C(F)(F)F)c1)c1cc(C#Cc2ccccc2)ccc1O [Compound No. 22, N-[3,5-bis(trifluoromethyl)phenyl]-2-hydroxy-5-(phenylethynyl)-benzamide] | – | – | – | – | – | – | inhibition at 1 µg/mL (NF-κ B; 1 μg/mL, HepG2, TNF-α (40 ng/ml), 4 hours, read-out: Inhibitory Ratio of NF-κ B Activation(%) Drug Concentration 1 μg/mL): 83.9%; inhibition at 10 µg/mL (NF-κ B; 10 μg/mL, HepG2, TNF-α (40 ng/ml), 4 hours, read-out: Inhibitory Ratio of NF-κ B Activation(%) Drug Concentration 10 μg/mL): 97.1%; IC50 (IL-6; Homo sapiens, Fibroblast, 72 h, 10 ng/ml TNFα, 3 days): 665 nM; IC50 (IL-8; 72 h, 10 ng/ml TNFα, 3 days): 869 nM |
| O=C(Nc1cc(C(F)(F)F)cc(C(F)(F)F)c1)c1cc(CCc2ccccc2)ccc1O [Compound No. 24] | 92.3 | 98.3 | – | – | – | – | IC50 (IL-6; 10 ng/ml TNFα, 3 days): 593 nM |
| O=C(Nc1cc(C(F)(F)F)cc(C(F)(F)F)c1)c1cc(C(F)(F)F)ccc1O [Compound No. 25] | 96.4 | 99.6 | – | – | – | – | IC50 (IL-6; 10 ng/ml TNFα, 3 days): 452 nM |
| O=C(Nc1cc(Br)cc(C(F)(F)F)c1)c1cc(Br)ccc1O [Compound No. 86] | 96.7 | 98.7 | – | – | – | – | IC50 (IL-6; 10 ng/ml TNFα, 3 days): 565 nM; IC50 (PGE2; 10 ng/ml TNFα, 3 days): 562 nM |
| COc1ccc(C(F)(F)F)cc1NC(=O)c1cc(Br)ccc1O [Compound No. 94] | 76.6 | 93.4 | – | – | – | – | IC50 (PGE2; 10 ng/ml TNFα, 3 days): 266 nM |
| O=C(Nc1cc(Cl)cc(Cl)c1)c1cc(Cl)ccc1O [Compound No. 125] | 84.5 | 96.8 | – | – | – | – | IC50 (IL-6; 10 ng/ml TNFα, 3 days): 903 nM; IC50 (PGE2; 10 ng/ml TNFα, 3 days): 966 nM |
| O=C(Nc1nc(C(F)(F)F)c(Br)s1)c1cc(Br)ccc1O [Compound No. 187] | 85.3 | 94.4 | – | – | – | – | IC50 (IL-6; 10 ng/ml TNFα, 3 days): 649 nM; IC50 (PGE2; 10 ng/ml TNFα, 3 days): 414 nM |
| O=C(Nc1ccc(C(F)(F)F)cc1C(F)(F)F)c1cc(Cl)ccc1O [Reference Example 1, N-[2,4-bis(trifluoromethyl)phenyl]-5-chloro-2-hydroxybenzamide, reference compound] | – | – | 202 | -70 | > 1000 | > 1000 | Inhibitory ratios (%) at 1000 nM, PGE2 (PGE2): 1.2% |
| O=C(Nc1ccccc1C(F)(F)F)c1cc(Cl)ccc1O [Reference Example 2, N-[2-(trifluoromethyl)phenyl]-5-chloro-2-hydroxybenzamide, reference compound] | – | – | 887 | 14 | > 1000 | 676 | – |
| O=C(Nc1ccc(Cl)cc1C(F)(F)F)c1cc(Cl)ccc1O [Reference Example 3, N-[4-chloro-2-(trifluoromethyl)phenyl]-5-chloro-2-hydroxybenzamide, reference compound] | – | – | > 1000 | -43 | > 1000 | > 1000 | Inhibitory ratios (%) at 1000 nM, IL-6 (IL-6): −17%; Inhibitory ratios (%) at 1000 nM, PGE2 (PGE2): 20% |
| O=C(Nc1cccc(C(F)(F)F)c1)c1cc(Br)ccc1O [Reference Example 4, N-[3-(trifluoromethyl)phenyl]-5-bromo-2-hydroxybenzamide, reference compound] | – | – | 690 | 16 | > 1000 | 413 | – |
| O=C(Nc1ccc(Cl)c(C(F)(F)F)c1)c1cc(Br)ccc1O [Reference Example 5, N-[4-chloro-3-(trifluoromethyl)phenyl]-5-bromo-2-hydroxybenzamide, reference compound] | – | – | 91 | 16 | > 1000 | 57 | – |
| O=C(Nc1ccc(C(F)(F)F)cc1)c1cc(Cl)ccc1O [Reference Example 6, N-[4-(trifluoromethyl)phenyl]-5-chloro-2-hydroxybenzamide, reference compound] | – | – | > 1000 | 4.2 | > 1000 | > 1000 | Inhibitory ratios (%) at 1000 nM, IL-6 (IL-6): 36%; Inhibitory ratios (%) at 1000 nM, PGE2 (PGE2): −24% |
| O=C(Nc1ccc(C(F)(F)F)cc1Cl)c1cc(Br)ccc1O [Reference Example 7, N-[2-chloro-4-(trifluoromethyl)phenyl]-5-bromo-2-hydroxybenzamide, reference compound] | – | – | > 1000 | 16 | > 1000 | > 1000 | Inhibitory ratios (%) at 1000 nM, IL-6 (IL-6): 27%; Inhibitory ratios (%) at 1000 nM, PGE2 (PGE2): 10% |
| Cc1ccc(C(=O)C(C)(C)C)cc1NC(=O)c1cc(Cl)ccc1O [compound 166] | 94.1 | 96.4 | – | – | – | – | – |
| O=C(Nc1ccc(Cl)nc1)c1cc(Cl)ccc1O [compound 240] | 14.3 | 92.3 | – | – | – | – | – |
| O=C(Nc1ccc(Cl)c(Cl)c1)c1cc(Br)ccc1O [drawing 558, reference compound] | – | – | – | – | – | – | inhibition at 0.1 µg/mL (NF-κ B; [5]): 6.8%; inhibition at 1 µg/mL (NF-κ B; [6]): 88.7%; inhibition at 10 µg/mL (NF-κ B; [7]): 92.7% |
| O=C(Nc1ccc(F)cc1F)c1cc([N+](=O)[O-])ccc1O [drawing 559, reference compound] | – | – | – | – | – | – | inhibition at 0.1 µg/mL (NF-κ B; [5]): -82.9%; inhibition at 1 µg/mL (NF-κ B; [6]): -63.8%; inhibition at 10 µg/mL (NF-κ B; [7]): 86.5% |
| O=C(Nc1cccc(C(F)(F)F)c1)c1cc(Br)ccc1O [drawing 560, reference compound] | – | – | – | – | – | – | inhibition at 0.1 µg/mL (NF-κ B; [5]): -20.9%; inhibition at 1 µg/mL (NF-κ B; [6]): 88%; inhibition at 10 µg/mL (NF-κ B; [7]): 89.6% |
| O=C(Nc1ccc(C(F)(F)F)cc1)c1cc(Cl)ccc1O [drawing 561, reference compound] | – | – | – | – | – | – | inhibition at 0.1 µg/mL (NF-κ B; [5]): -35.5%; inhibition at 1 µg/mL (NF-κ B; [6]): 85.3%; inhibition at 10 µg/mL (NF-κ B; [7]): 95% |
| O=C(Nc1ccccc1C(F)(F)F)c1cc(Cl)ccc1O [drawing 562, reference compound] | – | – | – | – | – | – | inhibition at 0.1 µg/mL (NF-κ B; [5]): -18.4%; inhibition at 1 µg/mL (NF-κ B; [6]): 41.6%; inhibition at 10 µg/mL (NF-κ B; [7]): 92.9% |
| O=C(Nc1ccc(Cl)c(Cl)c1)c1cc(Br)ccc1O [drawing 563, reference compound] | – | – | 205 | -12 | > 1000 | 208 | – |
| O=C(Nc1ccc(F)cc1F)c1cc([N+](=O)[O-])ccc1O [drawing 564, reference compound] | – | – | 248 | -4.5 | > 1000 | 62 | – |
